In patent publication US8008487B2, “Substituted thieno[2,3-D]pyrimidines as fungicides” (priority 2004, dated 2011):

Key:
Format in all cases: in vivo
[1] = system: Phytophthora infestans; assay: whole plant or invertebrate; conditions: for pest or weed control at 200 ppm: Phytophthora infestans, in Solanum lycopersicum, foliar, 24 h, read-out: PHYTIN percent control of disease, 200 ppm on foliage, tomato, one-day protectant test
[2] = system: Leptosphaeria nodorum; assay: Glume Blotch of Wheat (LEPTNO), whole-plant fungicide test; conditions: Parastagonospora nodorum, read-out: LEPTNO percent control of disease; for pest or weed control at 200 ppm: foliar, 24 h, 200 ppm on foliage, one-day protectant test
[3] = system: Puccinia recondita tritici; assay: Leaf Rust of Wheat (PUCCRT), whole-plant fungicide test; conditions: 200 ppm on foliage, one-day protectant test; for pest or weed control at 200 ppm: Puccinia recondita, foliar, 24 h, read-out: PUCCRT percent control of disease
[4] = system: Cochliobolus sativus; assay: Spot Blotch of Wheat (COCHSA), whole-plant fungicide test; conditions: Bipolaris sorokiniana, foliar, 24 h, 200 ppm on foliage, one-day protectant test, read-out: COCHSA percent control of disease
Description: The activity of the compounds as effective fungicides was determined by applying the compounds to plants and observing control of fungal disease. The compounds were formulated at 200 ppm in 10 vol. percent acetone plus 90 vol. percent Triton X water (deionized water 99.99 wt. percent+0.01 wt. percent Triton X100), giving a “formulated test compound.” In a few cases, compounds were formulated at 100, 75 or 8.3 ppm rather than 200 ppm in 10 vol. percent acetone plus 90 vol. percent Triton X water (deionized water 99.99 wt. percent+0.01 wt. percent Triton X100), giving a ‘formulated test compound’. The compounds were tested for ability to control plant diseases in a 1-day protectant test (1DP) or a 2-day curative test (2DC). Formulated test compounds were applied to plants using a turn table sprayer fitted with two opposing air atomization nozzles which delivered approximately 1500 L/ha of spray volume. Plants were inoculated with spores of the fungus the next day (1DP), then incubated in an environment conducive to disease development. In a few cases, the compounds were tested for ability to control plant disease in a two-day curative test. Plants were inoculated with spores of the fungus two days prior to compound application, and incubated in an environment conducive to disease development both before and after compound application (2DC). For all types of tests, disease severity was evaluated 4 to 28 days later, depending on the speed of disease development.
Each pot contained 3-8 seedlings. These plants were sprayed until wet with the formulated test compound. On the following day, the leaves were inoculated with an aqueous spore suspension of Cochliobolus sativus and the plants were kept in high humidity for one to two days to permit spores to germinate and infect the leaf. The plants were then transferred to a greenhouse until disease developed on untreated control plants.
The following table presents the activity of typical compounds of the present invention when evaluated in these experiments. The effectiveness of the test compounds in controlling disease was determined by assessing the severity of disease on treated plants, then converting the severity to percent control based on the level of disease on untreated, inoculated plants.
TABLE 4: Activity of compounds as fungicides. Data are the level at which the given disease was controlled when the given compound was applied to the foliage of the plant at 200 ppm. In a few cases (noted in the table) the compound was applied to the plant at 100, 75 or 8.3 ppm. The plant was inoculated with the fungus one day after treatment. In a few cases (noted in the table) the plant was inoculated with the fungus two days before treatment.

[5] = system: Magnaporthe grisea; assay: whole plant or invertebrate; conditions: for pest or weed control at 200 ppm: Pyricularia oryzae, in Oryza sativa, foliar, 24 h, read-out: PYRIOR percent control of disease, 200 ppm on foliage, rice, one-day protectant test
[6] = system: Colletotricum lagenarium; assay: Cucumber Anthracnose (COLLLA), whole-plant fungicide test; conditions: 200 ppm on foliage, one-day protectant test; for pest or weed control at 200 ppm: Cucumis sativus, foliar, 24 h, read-out: COLLLA percent control of disease
[7] = system: Septoria tritici; assay: Speckled Leaf Blotch of Wheat (SEPTTR), whole-plant fungicide test; conditions: Zymoseptoria tritici, read-out: SEPTTR percent control of disease; for pest or weed control at 200 ppm: foliar, 24 h, 200 ppm on foliage, one-day protectant test
[8] = system: Erysiphe cichoracaerum; assay: Cucumber Powdery Mildew (ERYSCI), whole-plant fungicide test; conditions: 200 ppm on foliage, one-day protectant test; for pest or weed control at 200 ppm: Erysiphe, foliar, 24 h, read-out: ERYSCI percent control of disease
[9] = 48 h, 100 ppm (footnote a), two-day curative test (footnote b)

Question: With `COc1ccc(C(C)Nc2ncnc3scc(C#N)c23)cc1` (stereo not drawn) [Compound 49, 5-Cyano-N-[1-(4-methoxyphenyl)ethyl]thieno[2,3-d]pyrimidin-4-amine] as the compound, how does the pest or weed control at 200 ppm [1] read?
Answer: 0 to 49%

Question: And the pest or weed control at 200 ppm [2]?
Answer: 0 to 49%

Question: What about the pest or weed control at 200 ppm [3] of the same compound?
Answer: 80 to 100%

Question: What about the pest or weed control at 200 ppm [4] of the same compound?
Answer: 50 to 79%

Question: And the pest or weed control at 200 ppm [5]?
Answer: 80 to 100%

Question: What about the pest or weed control at 200 ppm [6] of the same compound?
Answer: 0 to 49%

Question: For `CCOC(=O)c1csc2ncnc(NC(C)c3ccc(OC)cc3)c12` (stereo not drawn) [Compound 50, 5-Carboethoxy-N-[1-(4-methoxyphenyl)ethyl]thieno[2,3-d]pyrimidin-4-amine], which pest or weed control at 200 ppm [1] is on record?
Answer: 0 to 49%

Question: And the pest or weed control at 200 ppm [2]?
Answer: 0 to 49%

Question: What about the pest or weed control at 200 ppm [3] of the same compound?
Answer: 0 to 49%

Question: And the pest or weed control at 200 ppm [4]?
Answer: 50 to 79%

Question: And the pest or weed control at 200 ppm [5]?
Answer: 0 to 49%

Question: What about the pest or weed control at 200 ppm [6] of the same compound?
Answer: 0 to 49%

Question: What does the source list for `CCOC(=O)c1sc2ncnc(NC(C)c3ccc(OC)cc3)c2c1OC` (stereo not drawn) [Compound 51, 5-Methoxy-4-[1-(4-methoxyphenyl)ethylamino]thieno[2,3-d]pyrimidine-6-carboxylic Acid Ethyl Ester]?
Answer: pest or weed control at 200 ppm [7]: 0 to 49%; pest or weed control at 200 ppm [2]: 0 to 49%; pest or weed control at 200 ppm [3]: 0 to 49%; pest or weed control at 200 ppm [4]: 0 to 49%

Question: Which results are given for `COc1ccc(OCC(C)Nc2ncnc3scc(Cl)c23)cn1` (stereo not drawn) [Compound 53]?
Answer: pest or weed control at 200 ppm [7]: 50 to 79%; pest or weed control at 200 ppm [1]: 0 to 49%; pest or weed control at 200 ppm [2]: 0 to 49%; pest or weed control at 200 ppm [3]: 80 to 100%; pest or weed control at 200 ppm [4]: 50 to 79%; pest or weed control at 200 ppm [5]: 50 to 79%; pest or weed control at 200 ppm [6]: 0 to 49%

Question: How did the pest or weed control at 200 ppm [7] turn out when `CC(Nc1ncnc2scc(Cl)c12)c1cnc(OCC(F)(F)F)nc1` (stereo not drawn) [Compound 54] was run?
Answer: 50 to 79%

Question: And the pest or weed control at 200 ppm [1]?
Answer: 80 to 100%

Question: What about the pest or weed control at 200 ppm [2] of the same compound?
Answer: 50 to 79%

Question: What about the pest or weed control at 200 ppm [3] of the same compound?
Answer: 80 to 100%

Question: What about the pest or weed control at 200 ppm [4] of the same compound?
Answer: 0 to 49%

Question: What about the pest or weed control at 200 ppm [5] of the same compound?
Answer: 80 to 100%

Question: What about the pest or weed control at 200 ppm [6] of the same compound?
Answer: 0 to 49%

Question: How did the pest or weed control at 200 ppm [7] turn out when `COc1ncc(C(C)Nc2ncnc3scc(Cl)c23)cn1` (stereo not drawn) [Compound 55] was run?
Answer: 80 to 100%

Question: What about the pest or weed control at 200 ppm [1] of the same compound?
Answer: 80 to 100%

Question: And the pest or weed control at 200 ppm [2]?
Answer: 50 to 79%

Question: What about the pest or weed control at 200 ppm [3] of the same compound?
Answer: 80 to 100%

Question: And the pest or weed control at 200 ppm [4]?
Answer: 0 to 49%

Question: And the pest or weed control at 200 ppm [5]?
Answer: 50 to 79%

Question: What about the pest or weed control at 200 ppm [6] of the same compound?
Answer: 0 to 49%

Question: With `Clc1csc2ncnc(N3CCCC3c3cccnc3)c12` (stereo not drawn) [Compound 56] as the compound, how does the pest or weed control at 200 ppm [1] read?
Answer: 0 to 49%

Question: What about the pest or weed control at 200 ppm [2] of the same compound?
Answer: 0 to 49%

Question: What about the pest or weed control at 200 ppm [3] of the same compound?
Answer: 50 to 79%

Question: What about the pest or weed control at 200 ppm [4] of the same compound?
Answer: 0 to 49%

Question: What about the pest or weed control at 200 ppm [5] of the same compound?
Answer: 0 to 49%

Question: What about the pest or weed control at 200 ppm [8] of the same compound?
Answer: 0 to 49%

Question: What about the pest or weed control at 200 ppm [6] of the same compound?
Answer: 0 to 49%

Question: With `OCC(Nc1ncnc2scc(Cl)c12)c1ccccc1` (stereo not drawn) [Compound 69] as the compound, how does the pest or weed control at 100 ppm [7, 9] read?
Answer: 50 to 79%

Question: What about the “PHYTIN percent control of disease” value ([1]; 200 ppm on foliage, tomato, one-day protectant test) of the same compound?
Answer: * (* is 0-49 percent control of disease)

Question: What about the pest or weed control at 100 ppm [2, 9] of the same compound?
Answer: 50 to 79%

Question: And the “PUCCRT percent control of disease” value [3]?
Answer: * (* is 0-49 percent control of disease)

Question: And the “PYRIOR percent control of disease” value ([5]; 200 ppm on foliage, rice, one-day protectant test)?
Answer: * (* is 0-49 percent control of disease)

Question: And the “ERYSCI percent control of disease” value [8]?
Answer: * (* is 0-49 percent control of disease)

Question: And the “COLLLA percent control of disease” value [6]?
Answer: * (* is 0-49 percent control of disease)

Question: With `Clc1csc2ncnc(N3CCOCC3c3ccccc3)c12` (stereo not drawn) [Compound 92] as the compound, how does the pest or weed control at 200 ppm [1] read?
Answer: 0 to 49%

Question: What about the pest or weed control at 200 ppm [2] of the same compound?
Answer: 0 to 49%

Question: And the pest or weed control at 200 ppm [3]?
Answer: 0 to 49%

Question: And the pest or weed control at 200 ppm [5]?
Answer: 80 to 100%

Question: And the pest or weed control at 200 ppm [8]?
Answer: 0 to 49%

Question: And the pest or weed control at 200 ppm [6]?
Answer: 0 to 49%

Question: `Clc1csc2ncnc(N3CCCCC3c3ccccc3)c12` (stereo not drawn) [Compound 93] was tested. Which pest or weed control at 200 ppm [1] did it give?
Answer: 0 to 49%

Question: What about the pest or weed control at 200 ppm [2] of the same compound?
Answer: 0 to 49%

Question: What about the pest or weed control at 200 ppm [3] of the same compound?
Answer: 0 to 49%

Question: What about the pest or weed control at 200 ppm [5] of the same compound?
Answer: 80 to 100%

Question: And the pest or weed control at 200 ppm [8]?
Answer: 0 to 49%

Question: And the pest or weed control at 200 ppm [6]?
Answer: 0 to 49%
